Measured values from US20150079105A1, “TREATMENT OF ACUTE INFLAMMATION IN THE RESPIRATORY TRACT” (UCL Business PLC, priority 2012, published 2015).
Entries after “also recorded” stand apart in the source; their conditions may differ.

What was measured:
Format in all cases: in vivo
LPS challenged mice = assay: LPS-induced acute lung inflammation in mice: BAL fluid cell counts, MPO, serum albumin
[1] = tested on: 151 inflammatory mediators; assay: Low density array (LDA) of 151 inflammatory mediators, lung mRNA of LPS challenged mice; conditions: 5 mg/kg i.p. 30 min after LPS, 3 h
Protocol: FIG. 7. […] Lungs were removed, snap frozen and homogenised under liquid nitrogen before RNA was isolated and run on a low density gene array consisting of 151 inflammatory markers (A). […] Of these genes the pro-inflammatory cytokines TNF and IL-6, and the neutrophil chemoattractants CXCL1 and CXCL2, in addition to the chemokines CCL2 and CCL7 are further depicted (D). Data were analysed by one way ANOVA with Newman-Keuls Post Hoc test:, **p<0.01, *p<0.05.
In order to identify potential PAR1-regulated cytokine/chemokine candidates involved in LPS-induced ALI, a low density array (LDA) designed to profile 151 inflammatory mediators was used (FIG. 7a, FIG. 9). Total RNA was extracted from pulverised frozen pulverised lung using TRIzol (see manufacture's protocol (Invitrogen)), DNase treated using a DNA free kit (Ambion) and cDNA synthesised from 1 μg RNA/per sample using a Superscript kit (Invitrogen). Expression levels of known inflammatory mediators were analysed in cDNA using Taqman low density array qPCR chips and normalized to 18 s. Transcript data was analysed using the Gene Expression Similarity Suite (Genesis) software^51 and data represented as a heat map following log2 transformation and normalisation. Relative fold-difference in expression was calculated using the ΔΔT method with the saline treated group as the calibrator reference. […] The differential gene expression profile included the upregulation of several genes known to be important for the generation of inflammatory responses, such as TNF, interleukins, CXC chemokines and CC chemokines, including CCL2, CCL3, CCL4, CCL7, CCL22, CXCL1, CXCL2, CXCL10, CXCL13 and CX3CL1.

CCL7, Gr-1+ neutrophils = assay: Immunohistochemical staining of CCL7 and Gr-1 in lung sections of LPS challenged mice; conditions: 5 mg/kg 30 min after LPS; lungs fixed after 3 h
Protocol: FIG. 16. Mice were challenged with 125 μg/kg LPS (i.n.) and whole lungs inflated and fixed after 3 h. Immunohistochemical staining of CCL7 (a, b an c) or Gr-1 (d, e and f) was compared between saline treated controls and LPS challenged mice with or without treatment with the PAR1 antagonist RWJ-58259 (5 mg/kg) dosed therapeutically after 30 min. [AEW]. Endothelial-epithelial barrier disruption was measured by ELISA as the amount of serum albumin in BAL fluid from mice three hours after LPS (125 μg/kg i.n.) challenge (g) or S. pneumoniae challenge (h) with and without the PAR1 antagonist RWJ-58259 (5 mg/kg) dosed therapeutically i.p. after 30 min.
The observation that neutrophil migration downstream of PAR1 activation was mediated by the non-classical neutrophil chemokine, CCL7, was unexpected. In order to determine the cellular source of CCL7 the immunolocalization of CCL7 and Gr-1+ neutrophils in serial lung sections from saline treated and LPS-challenged mice was examined. In saline treated control lung, there was weak CCL7 staining which was mainly restricted to the bronchial epithelium (FIG. 16a). […] Only weak immunolocalization was detected in the alveolar epithelium. […] Gr-1 specific immunostaining was next performed in order to detect neutrophils in serial lung sections. No Gr-1 staining could be detected in saline treated controls (FIG. 16d). […]

[2] = 5 mg/kg i.p. 30 min after LPS 125 μg/kg i.n., 3 h after LPS, vs LPS alone
[3] = 5 mg/kg i.p. 30 min after LPS, 3 h

With NCC[C@H](NC(=O)[C@H](Cc1ccc(F)c(F)c1)NC(=O)Nc1ccc2c(CN3CCCC3)nn(Cc3c(Cl)cccc3Cl)c2c1)C(=O)NCc1ccccc1 [RWJ-58259] the “neutrophil numbers in the airspaces (BAL fluid)” value (LPS challenged mice; [2]) was “significantly decreased”, the “total cell numbers in the airspaces (BAL fluid)” value (LPS challenged mice; [2]) was “significantly decreased” and the “Gr-1+(F4/80−) neutrophils recovered from BAL fluid and whole lung preparations, flow cytometry” value (LPS challenged mice; [3]) was “a decrease”. For the same compound, the “LPS-induced neutrophil myeloperoxidase activity in lung homogenates” value (LPS challenged mice; [3]) was “reduced”, the “macrophage numbers in BAL fluid” value (LPS challenged mice; [3]) was “remained unchanged” and the “serum albumin levels in BAL fluid (alveolar-capillary barrier disruption)” value (LPS challenged mice; 5 mg/kg i.p. 30 min after LPS, 3 h, vs LPS alone, listed as PAR1 antagonist) was “significantly decreased; also recorded: significantly reduced”. For the same compound, the neutrophil recruitment (LPS challenged mice; 5 mg/kg i.p. 30 min after LPS, 6 h following LPS challenge) was “reduced”, the neutrophil recruitment (LPS challenged mice; 5 mg/kg i.p. 30 min after LPS, 24 h following LPS challenge) was “reduced” and the “CCL2 (MCP-1) mRNA expression in lung” value [1] was “decreased”. The “CCL7 (MCP-3) mRNA expression in lung” value [1] was “decreased”, the “CXCL1 mRNA expression in lung” value [1] was “unaffected” and the “CXCL2 mRNA expression in lung” value [1] was “unaffected”. The “IL-6 mRNA expression in lung” value [1] was “unaffected”, the “TNF mRNA expression in lung” value [1] was “unaffected” and the “number of genes (markers) with decreased expression following PAR1 antagonism” value ([1]; array of 151 markers) was 25 genes. The “Gr-1 immunoreactivity in lung sections” value (CCL7, Gr-1+ neutrophils) was “decreased” and the “LPS-induced CCL7 immunoreactivity in lung sections” value (CCL7, Gr-1+ neutrophils) was “reduced”.
